# Legend:
# NCI-H295R = assay: RNA-seq transcriptome of NCI-H295R after drug treatment; format: cell-based; settings: for differentially expressed genes overlapping between EZH2i and CBPi: 96-hour IC-50 administration
# Method: FIG. 6. Forskolin induces faithful zF differentiation and steroidogenesis in NCI-H295R. […] The induction of immediate early response programs is consistent with known mechanisms of action of PKA.
# (§1) FIG. 21. EZH2i and CBPi redundantly disrupt the NCI-H295R transcriptome. […] Right, gene expression changes induced by EZH2i and CBPi are strongly correlated. […] C.
# To evaluate if EZH2i disrupted zF differentiation, the NCI-H295R was treated with the zF differentiation agent forskolin and the transcriptome was profiled by RNA-seq. Despite that CIMP-high as a class is at the zF differentiation maximum across human ACC (FIG. 5), the presence of mutant CTNNB1 in this cell line and high levels of nuclear β-catenin are likely to enable faithful responsiveness to forskolin and refractory response to Wnt/β-catenin stimulants, analogously to the Y1 cell line.
# The NCI-H295R response to CBPi was evaluated by RNA-seq and compared to the NCI-H295R response to EZH2i. […] Similarly to EZH2i, CBPi induces downregulation of all core modules that define CIMP-high ACC (FIG. 22). Taken together, the results point to adrenocortical differentiation as a targetable therapeutic vulnerability selected for in CIMP-high ACC.
# [1] = tested on: subcutaneous, immunodeficient xenograft model of adrenal cancer; assay: Subcutaneous xenograft model of adrenal cancer; format: in vivo, mouse; settings: 200 mg/kg PO daily, compared to vehicle
# Method: To test if disruption of SF1/β-catenin complexes in vivo can cause dedifferentiation (Example 1 and 2) and disrupt tumor growth, the impact of EZH2 inhibition on a xenograft model derived from the Borges et al. Oncogene 2020 genetically engineered mouse model detailed in FIG. 25 was assayed.
# HSD3B2 = HSD3B2 expression by qPCR in NCI-H295R; format: cell-based; settings: doses under the IC-50
# Source text: FIG. 7. EZH2i reverses zF differentiation. […] Representative experiment shown, n>3. C.
# as §1
# NCI-H295R, ATC7L, and Y1 = assay: Viability of ACC cell lines with CBPi alone or combined with EZH2i; format: cell-based; settings: increasing doses of CBPi combined with EZH2i at the IC-50 dose for each cell line; all ACC cell lines
# Method: FIG. 20. EZH2i and CBPi are synergistic in ACC cell lines. NCI-H295R, ATC7L, and Y1 were treated with increasing doses of CBPi (PRI-724), alone or in combination with EZH2i at the IC-50 dose for each cell line (EZH2i viability curves for ATC7L and Y1 not shown).
# ACC cell lines were treated with a specific and irreversible inhibitor of the H3K27 acetyltransferase CBP (PRI-724 (Kahn, 2014)). CBP regulates H3K27ac deposition genome-wide including at enhancers, and CBP-dependent H3K27ac deposition is required for enhancer activity (Merika et al., 1998; Raisner et al., 2018). Cell lines received the CBP inhibitor (CBPi) either alone or combination with EZH2i at the determined IC-50 dose for that cell line.
SMILES,differentially expressed genes overlapping between EZH2i and CBPi (NCI-H295R) [%],tumor growth [1],expression of SF1 ([1]; immunohistochemistry),HSD3B2 expression (HSD3B2),steroidogenesis (RNA-seq) (NCI-H295R),"loss of viability in combination (NCI-H295R, ATC7L, and Y1)"
CCN(c1cc(-c2ccc(CN3CCOCC3)cc2)cc(C(=O)NCc2c(C)cc(C)[nH]c2=O)c1C)C1CCOCC1 [EPZ-6438],~70,decreases tumor growth,decreasing expression of SF1,–,–,–
C[C@H]1[C@H]2N(C(=O)CN(C)N2C(=O)NCc2ccccc2)[C@@H](Cc2ccc(OP(=O)(O)O)cc2)C(=O)N1Cc1cccc2cccnc12 [PRI-724],~70,–,–,dose-dependent downregulation,potent downregulation of steroidogenesis,synergistic

# Reference: patent US20240082272A1, “COMPOSITIONS AND METHODS FOR TREATING WNT-DRIVEN CANCER” (The Regents of the University of Michigan, priority 2020, published 2024)
